Assay [1] addresses T1, human FLT3 protein (FLT3 (WT)) (Homo sapiens, UniProt P36888).
T1 construct: human FLT3 protein (intracellular region, 564 to 993 aa); GST; purchased Carna Biosciences; host or cells: baculovirus expression system
T1 sequence (P36888 564-993): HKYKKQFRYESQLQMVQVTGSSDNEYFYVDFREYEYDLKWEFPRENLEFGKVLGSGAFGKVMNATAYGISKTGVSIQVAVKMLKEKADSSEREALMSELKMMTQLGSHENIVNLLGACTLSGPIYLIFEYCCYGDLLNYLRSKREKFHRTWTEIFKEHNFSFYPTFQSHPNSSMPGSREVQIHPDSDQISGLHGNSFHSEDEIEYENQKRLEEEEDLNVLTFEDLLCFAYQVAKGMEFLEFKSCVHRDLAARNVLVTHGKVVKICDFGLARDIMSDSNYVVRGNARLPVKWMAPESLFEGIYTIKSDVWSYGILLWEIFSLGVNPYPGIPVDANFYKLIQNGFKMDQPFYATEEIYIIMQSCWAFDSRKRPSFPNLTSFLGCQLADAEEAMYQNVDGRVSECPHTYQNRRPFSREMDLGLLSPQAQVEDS
The assay is described as follows: FLT3 inhibition test (FLT3 enzyme inhibition, time-resolved fluorescence of substrate peptide phosphorylation). In kind it is biochemical. Conditions: read-out: FLT3 (WT) enzyme inhibition activity. The procedure, abridged:
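Wild-type human FLT3 (1.2 μg) pre-incubated with compound 15 min at 25° C in 100 mM HEPES pH 7.5, 10 mM MgCl2, 25 mM NaCl, 1 mM DTT. Reaction started with substrate peptide and ATP (final 50 μM), run 30 min at 25° C; phosphorylation read by time-resolved fluorescence.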

Assay [2] has as its system MV4-11 cells. Nature of the assay: Leukemia cell proliferation inhibition test (ATPlite), MV4-11. Conditions: read-out: MV4-11 cell proliferation inhibition effect. Format: cell-based. The gist of the method:
(§1)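 72 h proliferation, 37° C/5% CO2; 10,000 cells/well, RPMI/10% FBS; ATPlite luminescence (RLU); 0.1% DMSO taken as 0% inhibition; GI50 via sigmoid fit, n=2.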

Assay [3] deals with Molm-13 cells. Nature of the assay: Leukemia cell proliferation inhibition test (ATPlite), Molm-13. In kind it is cell-based. Conditions: read-out: MOLM13 cell proliferation inhibition effect. The gist of the method:
as §1

[4] abbreviates: GST-fused human FLT3 (564 to 993 aa), ATP 50 μM.
[5] abbreviates: Homo sapiens, MV4-11, 72 h, MV4-11, 72 hours culture, ATPlite, GI50 per method.
Setting [6] is: Homo sapiens, MOLM-13, 72 h, Molm-13, 72 hours culture, ATPlite, GI50 per method.
Setting [7] is: Homo sapiens, MV4-11, MV4-11 cell.
The mark [8] stands for this setting: Homo sapiens, MOLM-13, MOLM13 cell.

Like-named read-outs stand apart in the source and are kept apart here.

Consider `CCCNc1nc(Nc2ccc(C(N)=O)cc2)ncc1C#Cc1cccc(NC(=O)[C@H](C)N(C)C(=O)/C=C/CN(C)C)c1` [Compound 8-14], for which the IC50 is less than 10 nM in assay [1] (setting [4]); less than 10 nM in assay [2] (MV4-11, 72 hours culture, ATPlite, GI50 per method); 10 to 100 nM in assay [3] (Molm-13, 72 hours culture, ATPlite, GI50 per method).

With `CCCNc1nc(Nc2ccnc(F)c2)ncc1C#CCCCNC(=O)[C@H](CC)N(C)C(=O)/C=C/CN(C)C` [Compound 9-18], the IC50 in assay [1] (setting [4]), in assay [2] (setting [5]) and in assay [3] (setting [6]) was less than 10 nM throughout.

In the case of `CNc1nc(Nc2ccc3cn[nH]c3c2)ncc1C#CCCCNC(=O)[C@@H]1CCCN1C(=O)/C=C/CN(C)C` [Compound 10-69], the IC50 in assay [1] (setting [4]), in assay [2] (setting [5]) and in assay [3] (setting [6]) was less than 10 nM in each case.

With `CCCNc1nc(Nc2ccc3[nH]nc(OC)c3c2)ncc1C#CCCCNC(=O)[C@@H]1CCCN1C(=O)/C=C/CN(C)C` [Compound 22-67], the IC50 in assay [1] (FLT3 (WT)), in assay [2] (setting [7]) and in assay [3] (setting [8]) was less than 10 nM each time.

For `CNc1nc(Nc2ccc(C#N)cc2)ncc1C#C[C@H]1C[C@@H](NC(=O)[C@H](C)N(C)C(=O)/C=C/CN(C)C)C1` [Compound 13-14, (E)-N—((S)-1-(((1S,3R)-3-((2-((4-Cyanophenyl)amino)-4-(methylamino)pyrimidin-5-yl)ethynyl)cyclobutyl)amino)-1-oxopropan-2-yl)-4-(dimethylamino)-N-methyl-2-butenamide], the IC50 in assay [1] (setting [4]), in assay [2] (setting [5]) and in assay [3] (setting [6]) was less than 10 nM throughout.

As for `C[C@@H](C(=O)NCCCC#Cc1cnc(Nc2ccc(F)nc2)nc1NCCCF)N(C)C(=O)/C=C/CN(C)C` [Compound 10-34], the IC50 in assay [1] (setting [4]), in assay [2] (setting [5]) and in assay [3] (setting [6]) was less than 10 nM in each case.

Take `CCCNc1nc(Nc2ccc(C(N)=O)cc2)ncc1C#Cc1ccc(NC(=O)CNC(=O)/C=C/CN(C)C)cc1` [Compound 8-4]: the results for the IC50 in assay [1] (setting [4]), in assay [2] (setting [5]) and in assay [3] (setting [6]) were less than 10 nM, 10 to 100 nM and 10 to 100 nM, respectively.

On to `CCCNc1nc(Nc2ccc3c(F)nn(C)c3c2)ncc1C#CCCCNC(=O)[C@@H]1CCCN1C(=O)/C=C/CN(C)C` [Compound 22-59], for which the IC50 in assay [1] (FLT3 (WT)), in assay [2] (setting [7]) and in assay [3] (setting [8]) was less than 10 nM throughout.

As for `CNc1nc(Nc2ccc(F)cc2)ncc1C#CCCCNC(=O)[C@@H]1C[C@H](C)CN1C(=O)/C=C/CN(C)C` [Compound 7-92], the IC50 in assay [1] (setting [4]), in assay [2] (setting [5]) and in assay [3] (setting [6]) was less than 10 nM each time.

As to `C[C@@H](C(=O)NCCCC#Cc1cnc(Nc2ccc(F)nc2)nc1N1CCCC1)N(C)C(=O)/C=C/CN(C)C` [Compound 11-8], the IC50 in assay [1] (setting [4]) was less than 10 nM; in assay [2] (setting [5]), 10 to 100 nM; in assay [3] (setting [6]), 10 to 100 nM.

As for `CCNc1nc(Nc2ccc3cn[nH]c3c2)ncc1C#CCCCNC(=O)[C@H](C)N(C)C(=O)/C=C/CN(C)C` [Compound 10-64], the IC50 in assay [1] (setting [4]), in assay [2] (setting [5]) and in assay [3] (setting [6]) was less than 10 nM each time.

In the case of `C[C@@H](C(=O)N[C@H]1CCC[C@@H](C#Cc2cnc(Nc3ccnc(F)c3)nc2NC2CC2)C1)N(C)C(=O)/C=C/CN(C)C` [Compound 14-2], the IC50 in assay [1] (setting [4]), in assay [2] (setting [5]) and in assay [3] (setting [6]) was less than 10 nM each time.

On to `C=CC(=O)NCCOc1cccc(NC(=O)c2cnc(NCCc3ccncc3)nc2NCCC)c1` [Compound 2-20], for which the IC50 was less than 10 nM in assay [1] (setting [4]), 10 to 100 nM in assay [2] (setting [5]) and 10 to 100 nM in assay [3] (setting [6]).

As to `CNc1nc(Nc2cccc(F)c2)ncc1C#CCCCNC(=O)[C@@H]1CCCN1C(=O)/C=C/CN(C)C` [Compound 7-77], the IC50 in assay [1] (setting [4]), in assay [2] (setting [5]) and in assay [3] (setting [6]) was less than 10 nM in each case.

Regarding `COCCCNc1nc(Nc2ccnc(OC)c2)ncc1C#CCCCNC(=O)[C@@H]1C[C@H](F)CN1C(=O)/C=C/CN(C)C` [Compound 9-34, (2S,4S)-1-((E)-4-(Dimethylamino)-2-butenoyl)-4-fluoro-N-(5-(4-((3-methoxypropyl)amino)-2-((methoxypyridin-4-yl)amino)pyrimidin-5-yl)-4-pentyn-1-yl)pyrrolidine-2-carboxamide], the IC50 in assay [1] (setting [4]), in assay [2] (setting [5]) and in assay [3] (setting [6]) was less than 10 nM each time.

As to `CCCNc1nc(Nc2ccc(F)c(F)c2)ncc1C#CCCCNC(=O)[C@H](C)N(C)C(=O)/C=C/CN(C)C` [Compound 7-41], the IC50 in assay [1] (setting [4]), in assay [2] (setting [5]) and in assay [3] (setting [6]) was less than 10 nM in each case.

For the compound `CNc1nc(Nc2ccc(F)cc2)ncc1C#CCCCNC(=O)[C@@H]1C[C@@H](O)CN1C(=O)/C=C/CN(C)C` [Compound 7-85], the IC50 in assay [1] (setting [4]), in assay [2] (setting [5]) and in assay [3] (setting [6]) was less than 10 nM each time.

In the case of `CCCNc1nc(Nc2cccc(F)c2)ncc1C#CCCCNC(=O)CN(C)C(=O)/C=C/CN(C)C` [Compound 7-24, (E)-4-(Dimethylamino)-N-(2-((5-(2-((3-fluorophenyl)amino)-4-(propylamino)pyrimidin-5-yl)-4-pentyn-1-yl)amino)-2-oxoethyl)-N-methyl-2-butenamide], the IC50 in assay [1] (setting [4]), in assay [2] (setting [5]) and in assay [3] (setting [6]) was less than 10 nM throughout.

Turning to `CNc1nc(Nc2cccc(C#N)c2)ncc1C#C[C@H]1C[C@@H](NC(=O)[C@H](C)N(C)C(=O)/C=C/CN(C)C)C1` [Compound 13-15, (E)-N—((S)-1-(((1S,3R)-3-((2-((3-Cyanophenyl)amino)-4-(methylamino)pyrimidin-5-yl)ethynyl)cyclobutyl)amino)-1-oxopropan-2-yl)-4-(dimethylamino)-N-methyl-2-butenamide], the IC50 in assay [1] (setting [4]), in assay [2] (setting [5]) and in assay [3] (setting [6]) was less than 10 nM throughout.

As to `CC(C)Oc1nc(Nc2cccc(F)c2)ncc1C#C[C@@H]1CCC[C@H](NC(=O)[C@H](C)N(C)C(=O)/C=C/CN(C)C)C1` [Compound 21-21], the IC50 in assay [1] (setting [4]), in assay [2] (setting [5]) and in assay [3] (setting [6]) was less than 10 nM each time.

For the compound `C[C@@H](C(=O)NCCC(C)(C)C#Cc1cnc(Nc2ccnc(F)c2)nc1NC1CC1)N(C)C(=O)/C=C/CN(C)C` [Compound 9-20], the IC50 in assay [1] (setting [4]), in assay [2] (setting [5]) and in assay [3] (setting [6]) was less than 10 nM throughout.

On to `CCCNc1nc(Nc2cccc(F)c2)ncc1C#Cc1cccc(NC(=O)[C@H](C)N(C)C(=O)/C=C/CN(C)C)c1` [Compound 8-1, (S,E)-4-(dimethylamino)-N-(1-((3-((2-((3-fluorophenyl)amino)-4-(propylamino)pyrimidin-5-yl)ethynyl)phenyl)amino)-1-oxopropan-2-yl)-N-methyl-2-butenamide], for which the IC50 in assay [1] (setting [4]), in assay [2] (setting [5]) and in assay [3] (setting [6]) was less than 10 nM throughout.

For the compound `C=CC(=O)N1CCC(NC(=O)c2cnc(NCCc3ccncc3)nc2NCCC)C1` (stereo not drawn) [Compound 6-16], the IC50 in assay [1] (setting [4]) fell in the range of 10 to 100 nM; in assay [2] (setting [5]), 100 to 1000 nM; in assay [3] (setting [6]), 10 to 100 nM.

`CCCNc1nc(Nc2cccc(F)c2)ncc1-c1cc(CCNC(=O)[C@H](C)N(C)C(=O)/C=C/CN(C)C)on1` [Compound 17-3, (S,E)-4-(dimethylamino)-N-(1-((2-(3-(2-((3-fluorophenyl)amino)-4-(propylamino)pyrimidin-5-yl)isoxazol-5-yl)ethyl)amino)-1-oxopropan-2-yl)-N-methyl-2-butenamide]: the IC50 in assay [1] (setting [4]) was less than 10 nM; in assay [2] (setting [5]), 10 to 100 nM; in assay [3] (setting [6]), 10 to 100 nM.

Values taken from patent US9145415B2, “Nitrogen-containing heterocyclic compound or salt thereof” (FUJIFILM Corporation, priority 2012, dated 2015).
